Data reported in patent publication US20100137303A1, “NEW COMPOUND 255” (AstraZeneca AB, priority 2008, published 2010).
Values after ≈ are worked out from the molar mass of the structure shown.

How the values were obtained:
Msm. GyrB = target: T1, Msm. GyrB (Mycolicibacterium smegmatis, UniProt A0QNE0); assay: Msmegmatis GyrB enzyme assay (ATPase, malachite green phosphate detection); type: biochemical; conditions: read-out: Msm_GyrB IC50
T1 construct: 15 nM Msm; GyrB, 650 μM ATP, and compound in dimethyl sulfoxide
Procedure: Compounds may be tested for inhibition of GyrB ATPase activity using an ammonium molybdate/malachite green-based phosphate detection assay (Lanzetta, P. A., L. J. Alvarez, P. S. Reinach, and O. A. Candia, 1979, 100: 95-97; Innova Biosciences malachite green detection kit). Assays can be performed in multi-well plates in 50 μl reactions containing: 50 mM HEPES buffer pH 7.7, 250 mM potassium glutamate, 200 mM potassium chloride, 2 mM magnesium chloride, 2% glycerol, 1 mM 1,4-Dithio-DL-threitol, 0.005% Brij-35, 15 nM Msm. GyrB, 650 μM ATP, and compound in dimethyl sulfoxide. Reactions can be quenched with 12.5 μl of ammonium molybdate/malachite green detection reagent (Pi color lock gold & accelerator mix; Innova Biosciences), followed by the addition of 5 μl of stabilizer (Innova Biosciences) after 5 min of incubation.

M. tuberculosis = assay: Mycobacteria susceptibility testing, Microplate Alamar Blue Assay, Mtu MIC; type: cell-based, Mycobacterium tuberculosis (Mtu); conditions: Mycobacterium tuberculosis
Spn548 = assay: Bacterial susceptibility testing in liquid media, Spn548 MIC; conditions: Streptococcus pneumoniae, 24 h, read-out: Spn548 Mean MIC
Description: (§1) Compounds may be tested for antimicrobial activity by susceptibility testing in liquid media. Compounds may be dissolved in dimethylsulfoxide and tested in 10 doubling dilutions in the susceptibility assays. The organisms used in the assay may be grown overnight on suitable agar media and then suspended in a liquid medium appropriate for the growth of the organism. The suspension can be a 0.5 McFarland and a further 1 in 10 dilution can be made into the same liquid medium to prepare the final organism suspension in 100 μL. Plates can be incubated under appropriate conditions at 37° C. for 24 hrs prior to reading.

Eco-tolC = assay: Bacterial susceptibility testing in liquid media, Eco-tolC MIC; conditions: Escherichia coli, read-out: Eco-tolC MIC
Description: as §1

T1 sequence (A0QNE0 whole entry): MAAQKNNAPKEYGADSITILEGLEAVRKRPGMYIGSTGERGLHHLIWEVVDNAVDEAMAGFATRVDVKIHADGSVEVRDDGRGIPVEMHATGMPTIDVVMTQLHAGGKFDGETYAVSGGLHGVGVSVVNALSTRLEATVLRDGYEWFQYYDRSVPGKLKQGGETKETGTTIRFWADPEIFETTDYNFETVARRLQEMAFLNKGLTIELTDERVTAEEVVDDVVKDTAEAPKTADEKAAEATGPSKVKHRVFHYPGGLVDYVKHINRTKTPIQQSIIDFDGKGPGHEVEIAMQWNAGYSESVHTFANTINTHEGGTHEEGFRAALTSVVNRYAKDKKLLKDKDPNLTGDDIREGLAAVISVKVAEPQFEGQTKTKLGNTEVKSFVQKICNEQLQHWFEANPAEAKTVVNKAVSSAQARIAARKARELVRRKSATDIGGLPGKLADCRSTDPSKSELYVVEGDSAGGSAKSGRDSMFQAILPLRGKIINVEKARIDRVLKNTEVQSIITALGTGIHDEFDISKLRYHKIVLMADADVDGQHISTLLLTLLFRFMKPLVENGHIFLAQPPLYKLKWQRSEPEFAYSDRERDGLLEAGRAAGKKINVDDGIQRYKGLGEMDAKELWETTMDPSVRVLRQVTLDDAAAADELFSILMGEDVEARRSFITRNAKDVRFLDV

| Structure (SMILES) | IC50 (Msm. GyrB) [nM] | MIC (M. tuberculosis) [µg/mL] | MIC (Spn548) [µg/mL] | MIC (Eco-tolC) [µg/mL] |
| --- | --- | --- | --- | --- |
| C=CCNC(=O)Nc1nc2cc(-c3cncc(C(=O)N4CCOCC4)c3)cnc2s1 [Example 25, 1-{6-[5-(morpholin-4-ylcarbonyl)pyridin-3-yl][1,3]thiazolo[5,4-b]pyridin-2-yl}-3-prop-2-en-1-ylurea] | 1440 | > 32 | > 32 | > 32 |
| C=CCNC(=O)Nc1nc2cc(-c3cncc(C(=O)NCC(C)C)c3)cnc2s1 [Example 26, N-(2-methylpropyl)-5-{2-[(prop-2-en-1-ylcarbamoyl)amino][1,3]thiazolo[5,4-b]pyridin-6-yl}pyridine-3-carboxamide] | 394 | > 32 | > 32 | > 32 |
| C=CCNC(=O)Nc1nc2cc(-c3cc[nH]n3)c(C)nc2s1 [Example 27, 1-[5-methyl-6-(1H-pyrazol-3-yl)[1,3]thiazolo[5,4-b]pyridin-2-yl]-3-prop-2-en-1-ylurea] | 1840 | 11.3 (≈ 36 µM) | 2 (≈ 6.36 µM) | > 22.6 |
| C=CCNC(=O)Nc1nc2cc(-c3cncnc3)c(OCCOC)nc2s1 [Example 30, 1-[5-(2-methoxyethoxy)-6-pyrimidin-5-yl[1,3]thiazolo[5,4-b]pyridin-2-yl]-3-prop-2-en-1-ylurea] | 60.3 | 2 (≈ 5.18 µM) | 0.152 (≈ 0.394 µM) | 0.609 (≈ 1.58 µM) |
| C=CCNC(=O)Nc1nc2cc(-c3nc(C(=O)O)cs3)cnc2s1 [Example 31, 2-{2-[(prop-2-en-1-ylcarbamoyl)amino][1,3]thiazolo[5,4-b]pyridin-6-yl}-1,3-thiazole-4-carboxylic acid] | 8940 | > 32 | > 32 | > 32 |
| C=CCNC(=O)Nc1nc2cc(-c3cnccn3)cnc2s1 [Example 32, 1-prop-2-en-1-yl-3-(6-pyrazin-2-yl[1,3]thiazolo[5,4-b]pyridin-2-yl)urea] | 836 | > 32 | 32 (≈ 102 µM) | > 32 |
| C=CCNC(=O)Nc1nc2cc(-c3cncnc3)c(OCC(C)C)nc2s1 [Example 33, 1-[5-(2-methylpropoxy)-6-pyrimidin-5-yl[1,3]thiazolo[5,4-b]pyridin-2-yl]-3-prop-2-en-1-ylurea] | 18.4 | 1 (≈ 2.6 µM) | 0.0625 (≈ 0.163 µM) | 1 (≈ 2.6 µM) |
| C=CCNC(=O)Nc1nc2cc(-c3cncnc3)c(OCc3ccccn3)nc2s1 [Example 34, 1-prop-2-en-1-yl-3-[5-(pyridin-2-ylmethoxy)-6-pyrimidin-5-yl[1,3]thiazolo[5,4-b]pyridin-2-yl]urea] | 28.1 | 1.41 (≈ 3.37 µM) | 0.0625 (≈ 0.149 µM) | 1 (≈ 2.38 µM) |
| CCNC(=O)Nc1nc2cc(-c3cncnc3)c(OCCOC(C)C)nc2s1 [Example 35, 1-ethyl-3-{5-[2-(1-methylethoxy)ethoxy]-6-pyrimidin-5-yl[1,3]thiazolo[5,4-b]pyridin-2-yl}urea] | 28 | 0.354 (≈ 0.879 µM) | 0.0625 (≈ 0.155 µM) | 0.25 (≈ 0.621 µM) |
| CCNC(=O)Nc1nc2cc(-c3cncnc3)c(OCCC(C)C)nc2s1 [Example 37, 1-ethyl-3-[5-(3-methylbutoxy)-6-pyrimidin-5-yl[1,3]thiazolo[5,4-b]pyridin-2-yl]urea] | 11.8 | < 0.25 | 0.0625 (≈ 0.162 µM) | 0.25 (≈ 0.647 µM) |
| CCNC(=O)Nc1nc2cc(-c3cncnc3)c(OCCc3scnc3C)nc2s1 [Example 38, 1-ethyl-3-{5-[2-(4-methyl-1,3-thiazol-5-yl)ethoxy]-6-pyrimidin-5-yl[1,3]thiazolo[5,4-b]pyridin-2-yl}urea] | < 5.01 | 0.281 (≈ 0.636 µM) | 0.0625 (≈ 0.142 µM) | 0.125 (≈ 0.283 µM) |
| CCNC(=O)Nc1nc2cc(-c3cncnc3)c(OCC(F)(F)F)nc2s1 [Example 39, 1-ethyl-3-[6-pyrimidin-5-yl-5-(2,2,2-trifluoroethoxy)[1,3]thiazolo[5,4-b]pyridin-2-yl]urea] | < 3.87 | 0.25 (≈ 0.628 µM) | 0.0625 (≈ 0.157 µM) | 0.354 (≈ 0.888 µM) |
| CCNC(=O)Nc1nc2cc(-c3cccnc3)c(OCCOC(C)C)nc2s1 [Example 41, 1-ethyl-3-{5-[2-(1-methylethoxy)ethoxy]-6-pyridin-3-yl[1,3]thiazolo[5,4-b]pyridin-2-yl}urea] | 9.1 | 2 (≈ 4.98 µM) | 0.0784 (≈ 0.195 µM) | 5.02 (≈ 12.5 µM) |
| CCNC(=O)Nc1nc2cc(-c3cncnc3)c(OCC(C)C)nc2s1 [Example 43, 1-ethyl-3-[5-(2-methylpropoxy)-6-pyrimidin-5-yl[1,3]thiazolo[5,4-b]pyridin-2-yl]urea] | 4.39 | 0.125 (≈ 0.336 µM) | 0.0727 (≈ 0.195 µM) | 0.582 (≈ 1.56 µM) |
| CCNC(=O)Nc1nc2cc(-c3cncnc3)c(OCCOCC)nc2s1 [Example 46, 1-[5-(2-ethoxyethoxy)-6-pyrimidin-5-yl[1,3]thiazolo[5,4-b]pyridin-2-yl]-3-ethylurea] | 20 | 0.125 (≈ 0.322 µM) | 0.0625 (≈ 0.161 µM) | 0.25 (≈ 0.644 µM) |
| C=CCOCCOc1nc2sc(NC(=O)NCC)nc2cc1-c1cncnc1 [Example 47, 1-ethyl-3-{5-[2-(prop-2-en-1-yloxy)ethoxy]-6-pyrimidin-5-yl[1,3]thiazolo[5,4-b]pyridin-2-yl}urea] | 17.1 | 0.125 (≈ 0.312 µM) | 0.0625 (≈ 0.156 µM) | 0.5 (≈ 1.25 µM) |
| CCNC(=O)Nc1nc2cc(-c3ccc(F)nc3)c(OCCOC)nc2s1 [Example 48, 1-ethyl-3-[6-(6-fluoropyridin-3-yl)-5-(2-methoxyethoxy)[1,3]thiazolo[5,4-b]pyridin-2-yl]urea] | 4.51 | 0.707 (≈ 1.81 µM) | 0.0625 (≈ 0.16 µM) | 0.125 (≈ 0.319 µM) |
| CCNC(=O)Nc1nc2cc(-c3cncnc3)c(OCC3CCOCC3)nc2s1 [Example 49, 1-ethyl-3-[6-pyrimidin-5-yl-5-(tetrahydro-2H-pyran-4-ylmethoxy)[1,3]thiazolo[5,4-b]pyridin-2-yl]urea] | < 2.54 | 0.0625 (≈ 0.151 µM) | 0.0625 (≈ 0.151 µM) | 0.125 (≈ 0.302 µM) |
| CCNC(=O)Nc1nc2cc(-c3cncnc3)c(OCc3cscn3)nc2s1 [Example 50, 1-ethyl-3-[6-pyrimidin-5-yl-5-(1,3-thiazol-4-ylmethoxy)[1,3]thiazolo[5,4-b]pyridin-2-yl]urea] | < 2.54 | 0.25 (≈ 0.605 µM) | 0.0625 (≈ 0.151 µM) | 0.25 (≈ 0.605 µM) |
| CCNC(=O)Nc1nc2cc(-c3cncnc3)c(OCC3CCCO3)nc2s1 (stereo not drawn) [Example 51, 1-ethyl-3-[6-pyrimidin-5-yl-5-(tetrahydrofuran-2-ylmethoxy)[1,3]thiazolo[5,4-b]pyridin-2-yl]urea] | 4.87 | 0.25 (≈ 0.624 µM) | 0.0625 (≈ 0.156 µM) | 0.125 (≈ 0.312 µM) |
| CCNC(=O)Nc1nc2cc(-c3cncnc3)c(NCC3CCCO3)nc2s1 (stereo not drawn) [Example 52, 1-ethyl-3-{6-pyrimidin-5-yl-5-[(tetrahydrofuran-2-ylmethyl)amino][1,3]thiazolo[5,4-b]pyridin-2-yl}urea] | 7.88 | 1 (≈ 2.5 µM) | 0.125 (≈ 0.313 µM) | 4 (≈ 10 µM) |
| CCNC(=O)Nc1nc2cc(-c3cncc(C(=O)OCC)c3)c(OCC3CCOC3)nc2s1 (stereo not drawn) [Example 53, ethyl 5-{2-[(ethylcarbamoyl)amino]-5-(tetrahydrofuran-3-ylmethoxy)[1,3]thiazolo[5,4-b]pyridin-6-yl}pyridine-3-carboxylate] | 62.2 | 2.83 (≈ 6 µM) | 0.0625 (≈ 0.133 µM) | 0.5 (≈ 1.06 µM) |
| CCNC(=O)Nc1nc2cc(-c3cccc(/C=C/C(=O)O)c3)c(OCC3CCOC3)nc2s1 (stereo not drawn) [Example 55, (2E)-3-(3-{2-[(ethylcarbamoyl)amino]-5-(tetrahydrofuran-3-ylmethoxy)[1,3]thiazolo[5,4-b]pyridin-6-yl}phenyl)prop-2-enoic acid] | 35.2 | > 8 | 0.0625 (≈ 0.133 µM) | 2 (≈ 4.27 µM) |
| CCNC(=O)Nc1nc2cc(-c3cncnc3)c(OC)nc2s1 [Example 56, 1-ethyl-3-(5-methoxy-6-pyrimidin-5-yl[1,3]thiazolo[5,4-b]pyridin-2-yl)urea] | 21.6 | 0.707 (≈ 2.14 µM) | 0.0625 (≈ 0.189 µM) | 0.5 (≈ 1.51 µM) |
| CCNC(=O)Nc1nc2cc(N3CCC(O)C3)c(OCC3CCOC3)nc2s1 (stereo not drawn) [Example 58, 1-ethyl-3-(6-(3-hydroxypyrrolidin-1-yl)-5-((tetrahydrofuran-3-yl)methoxy)thiazolo[5,4-b]pyridin-2-yl)urea] | 2110 | > 8 | 4 (≈ 9.82 µM) | > 32 |
| CCNC(=O)Nc1nc2cc(-c3ccc(F)nc3)c(OCC3CCOCC3)nc2s1 [Example 59, 1-ethyl-3-[6-(6-fluoropyridin-3-yl)-5-(tetrahydro-2H-pyran-4-ylmethoxy)[1,3]thiazolo[5,4-b]pyridin-2-yl]urea] | < 4.83 | 0.5 (≈ 1.16 µM) | 0.125 (≈ 0.29 µM) | 1 (≈ 2.32 µM) |
| CCNC(=O)Nc1nc2cc(-c3cncc(F)c3)c(OCC3CCOCC3)nc2s1 [Example 60, 1-ethyl-3-[6-(5-fluoropyridin-3-yl)-5-(tetrahydro-2H-pyran-4-ylmethoxy)[1,3]thiazolo[5,4-b]pyridin-2-yl]urea] | < 2.54 | 0.354 (≈ 0.819 µM) | 0.125 (≈ 0.29 µM) | 1 (≈ 2.32 µM) |
